The test system of data set [1] is primary cultures of cortical neurons. The data set can be described thus: Primary neuronal culture viability (MTT assay). The data set is classed as cell-based, mouse. Particulars: primary neuron culture, 24 hours. The protocol:
For neuronal cultures, primary cultures of cortical neurons were prepared from embryonic day 17 (E17) OF1 mice embryos (Charles River Laboratories) as previously described [Allaman I., Pellerin L., Magistretti P. J. (2004) Glucocorticoids modulate neurotransmitter-induced glycogen metabolism in cultured cortical astrocytes. J. Neurochem. 88, 900-908] or from C57BL/6JRccHsd mice at E18. Animals were sacrificed and embryos were dissected in Calcium and Magnesium free Hanks Balanced Salt Solution (CMF-HBSS) containing 15 mM HEPES and 10 mM NaHCO3, pH 7.2. Embryos were decapitated, skin and skull gently removed and hemispheres were separated. […]
The MTT assay was conducted according to manufacturer's instructions (Invitrogen/Molecular Probes, Eugene, Oreg.) and was measured using a plate reader at an absorbance wavelength of 570 nm. Cell survival rate was expressed either as the absorbance values or as optical density (OD), with values calculated as % of controls.
Primary neuronal culture viability in the presence of Compound A/SND118 Primary neuron culture was prepared as described and treated with Compound A/SND118 at various concentrations for 24 hours. Cellular viability was measured using MTT assay as described.

The test system of another data set is astrocytes cultures. The data set can be described thus: ROS formation (H2DCF-DA kit). The data set is classed as cell-based, mouse. Particulars: various concentrations, 2 h. The method, then: ROS formation has been determined as described [Yang J et al, Lactate promotes plasticity gene expression by potentiating NMDA signalling in neurons. Proc Natl Acad Sci USA. 2014. 111(33):12228-33] using a H2DCF-DA kit (ThermoFisher) as recommended by the manufacturer. Briefly, astrocytes cultures were washed twice with HBSS and incubated for 60 min in 50 μM in HBSS at 37° C. and 5% CO2 in the presence of the dye. After two washing steps with prewarmed HBSS the cells were treated with increasing concentrations of 100 μL Compound A at 37° C. and 5% CO2. Fluorescence intensity was measured after 2 h from the same plate using a fluorescence microplate reader (Safire 2; Tecan) at an excitation wavelength of 485 nm and an emission wavelength of 528 nm.
To assess the effect of Compound A on ROS accumulation in primary neuron cultures, the cells were treated with various concentration of Compound A for 2 hours and ROS was measured as described (FIG. 4).

Data set [2] deals with human hepatocytes from pooled donor lot. The data set can be described thus: Hepatic toxicity: cell viability by ATP content. The data set is classed as cell-based. Particulars: 1 to 100 μM, 24 h exposure. The protocol:
Cryopreserved human hepatocytes from pooled donor lot (Bioreclamation IVT) were seeded on collagen I coated 96-well plates (Corning Biocoat) at 0.55×10^5 cells per well in 120 μl InVitroGRO™ CP medium (BioIVT), including additives Torpedo Antibiotic mix (BioIVT). After cell attachment (4-6 hours post seeding) cell culture medium was replaced with fresh medium and incubated for 72 hours at 37° C. under 5% CO2. Thereafter, hepatocytes were exposed to test or control compounds in 100 μl of InVitroGRO™ HI medium, including additives Torpedo Antibiotic mix at concentrations presented below. Cytotoxicity and cell viability were evaluated based on LDH release in medium and ATP content in the cells after 24 hours exposure phase.
Cytotoxicity potency of test compounds SND118, SND121, SND122 and SND123 was assayed in human hepatocytes from pooled donor lot at three concentrations; 1, 10 and 100 μM. Cytotoxicity was assayed from medium samples after 24 h exposure period with test compounds by measuring membrane integrity (LDH leakage), coupled to fluorescent signal. In parallel, cell viability was assayed by the means of ATP content, indicating the metabolically competent cell activity. LDH and ATP assay kits were sourced from Promega. ATP content was measured based on luciferase catalysed reaction generating stable bioluminescent signal. […]

The nature of data set [3]: Metabolic stability in mouse intestine microsomes. The data set is classed as in vitro ADME. As to conditions: male, CD1, mouse, pooled intestine microsomes, pH 7.4, intestinal microsomes, 0.5 mg/ml protein, read-out: T1/2 IM mouse. The protocol:
(§1) Sample type: pooled liver or intestine microsomes; Species: CD1-mouse (male), human (mixed gender) Time points: 0, 10, 20, 40, 60 min cofactors, and negative control;
(§2) Protein content: 0.5 mg/ml: Replicates: 2 with cofactors, 1 without cofactors; Cofactors: NADPH (1 mM)+UDPGA (1 mM)+15 μg/ml alamethicin Buffer: 0.1 M phosphate buffer pH 7.4, 2 mM MgCl2; Spiking solvent: 50% DMSO ( 1/100 to incubation); Quenching solvent: 2-fold volume of 75% ACN, Control: midazolam disappearance rate
(§3) The study compounds were incubated with liver or intestine microsomes as specified above. The collected samples were stored at −20 C until thawed at room temperature, centrifuged and analyzed as presented below.
(§4) The samples were analysed by UPLC/HR-MS (with data dependent MS/MS mode) to monitor substrate depletion (and later optionally metabolite formation). The analytical method was optimised by using the parent compound for optimum chromatographic properties (peak shape and retention) and mass spectrometric ionisation. Disappearance rate of the study compound was estimated based on relative LC/MS peak areas (o min marked as 100%), and was used to calculate in vitro half-life and clearance (and in vivo extrapolation of hepatic clearance).

Data set [4] can be described thus: Metabolic stability in human intestine microsomes. Particulars: both sexes, pooled intestine microsomes, pH 7.4, intestinal microsomes, 0.5 mg/ml protein, read-out: T1/2 IM human. Type of data set: in vitro ADME. The method, then:
as §1, §2, §3, §4

Results on 1 compound are retold here after US20220411448A1, “CHROMENE-4-ONE DERIVATIVES AS BRAIN-DERIVED NEUROTROPHIC FACTOR (BDNF) MIMETICS” (FLORATEK PHARMA AG, priority 2019, published 2022).

The structures appear in SMILES notation.

For the compound `O=c1cc(-c2ccc(CCCC[P+](c3ccccc3)(c3ccccc3)c3ccccc3)cc2)oc2c(O)c(O)ccc12` [SND118, 4-[4-(7,8-dihydroxy-4-oxo-chromen-2-yl)phenyl]butyltriphenylphosphonium bromide], in data set [1], the “Cellular viability (MTT): concentration up to which not toxic” value is ≤ 10 µM. Moreover, the ROS accumulation entry in the data set with astrocytes cultures is reported as “decrease in ROS accumulation”. For the same compound, the “ATP content (cell viability)” value in data set [2] was 72-103%. The half-life at 1 μM in data set [3] came out at 27.6 min; in data set [4], 30.8 min.
